Laboratory results reported in US20240308996A1, “PYRIDOPYRIDINES AND DERIVATIVES THEREOF AS SELECTIVE KINASE INHIBITORS” (University of Sharjah, priority 2023, published 2024).

What was measured:
Format in all cases: cell-based
NCI-H522 = assay: NCI-60 cell line panel: NCI-H522; design: TGI: unit not given here; settings: Non-Small Cell Lung Cancer
Experimental: (§1) It was carried out at the NCI, Bethesda, MD, USA, utilizing their standard protocol.

NCI-H226 = assay: NCI-60 cell line panel: NCI-H226; settings: Non-Small Cell Lung Cancer
Experimental: as §1

SN12C = assay: NCI-60 cell line panel: SN12C; settings: Renal Cancer
Experimental: as §1

UO-31 = assay: NCI-60 cell line panel: UO-31; design: TGI: unit not given here; settings: Renal Cancer
Experimental: as §1

BT-549 = assay: NCI-60 cell line panel: BT-549; settings: Breast Cancer
Experimental: as §1

PC-3 = assay: NCI-60 cell line panel: PC-3; settings: Prostate Cancer
Experimental: as §1

MDA-MB-435 = assay: NCI-60 cell line panel: MDA-MB-435; design: TGI: unit not given here; settings: Melanoma
Experimental: as §1

RXF 393 = assay: NCI-60 cell line panel: RXF 393; settings: Renal Cancer
Experimental: as §1

SR = assay: NCI-60 cell line panel: SR; settings: Leukemia
Experimental: as §1

SW-620 = assay: NCI-60 cell line panel: SW-620; settings: Colon Cancer
Experimental: as §1

DU-145 = assay: NCI-60 cell line panel: DU-145; settings: Prostate Cancer
Experimental: as §1

M14 = assay: NCI-60 cell line panel: M14; settings: Melanoma
Experimental: as §1

K-562 = assay: NCI-60 cell line panel: K-562; design: TGI: unit not given here
Experimental: as §1

SF-539 = assay: NCI-60 cell line panel: SF-539; settings: CNS Cancer
Experimental: as §1

MDA-MB-231/ATCC = assay: NCI-60 cell line panel: MDA-MB-231/ATCC; settings: Breast Cancer
Experimental: as §1

SK-OV-3 = assay: NCI-60 cell line panel: SK-OV-3; settings: Ovarian Cancer
Experimental: as §1

NCI-H23 = assay: NCI-60 cell line panel: NCI-H23; settings: Non-Small Cell Lung Cancer
Experimental: as §1

NCI/ADR-RES = assay: NCI-60 cell line panel: NCI/ADR-RES; design: TGI: unit not given here; settings: Ovarian Cancer
Experimental: as §1

LOX IMVI = assay: NCI-60 cell line panel: LOX IMVI; settings: Melanoma
Experimental: as §1

A549/ATCC = assay: NCI-60 cell line panel: A549/ATCC; settings: Non-Small Cell Lung Cancer
Experimental: as §1

[1] = test system: hepatocellular carcinoma cell lines; assay: Screening against HCC cell lines
MCF7 = assay: NCI-60 cell line panel: MCF7; settings: Breast Cancer
Experimental: as §1

A498 = assay: NCI-60 cell line panel: A498; settings: Renal Cancer
Experimental: as §1

ACHN = assay: NCI-60 cell line panel: ACHN; settings: Renal Cancer
Experimental: as §1

OVCAR-5 = assay: NCI-60 cell line panel: OVCAR-5; settings: Ovarian Cancer
Experimental: as §1

786-0 = assay: NCI-60 cell line panel: 786-0; settings: Renal Cancer
Experimental: as §1

HCC-2998 = assay: NCI-60 cell line panel: HCC-2998; settings: Colon Cancer
Experimental: as §1

SK-MEL-28 = assay: NCI-60 cell line panel: SK-MEL-28; settings: Melanoma
Experimental: as §1

**Q.** How did the IC50 (NCI-H522; Homo sapiens) turn out when `CC(C)NC(=O)c1cc(-c2ccc(NC(=O)Nc3ccc(N4CCN(C)CC4)c(C(F)(F)F)c3)cc2)nc2cccnc12` [Compound 13e, N-Isopropyl-2-(4-(3-(4-(4-methylpiperazin-1-yl)-3-(trifluoromethyl)phenyl)ureido)phenyl)-1,5-naphthyridine-4-carboxamide] was run?
**A.** 0.67 µM

**Q.** What about the TGI (NCI-H522; total growth inhibition) of the same compound?
**A.** 1.37

**Q.** What about the IC50 (NCI-H226; Homo sapiens) of the same compound?
**A.** 5.6 µM

**Q.** What about the TGI (NCI-H226; total growth inhibition) of the same compound?
**A.** 14.7 µM

**Q.** What about the IC50 (SN12C; Homo sapiens) of the same compound?
**A.** 0.68 µM

**Q.** What about the TGI (SN12C; total growth inhibition) of the same compound?
**A.** 1.26 µM

**Q.** What about the IC50 (UO-31; Homo sapiens) of the same compound?
**A.** 0.59 µM

**Q.** And the TGI (UO-31; total growth inhibition)?
**A.** 1.11

**Q.** And the TGI (BT-549; total growth inhibition)?
**A.** 7.41 µM

**Q.** What about the IC50 (BT-549; Homo sapiens) of the same compound?
**A.** 2.1 µM

**Q.** And the IC50 (PC-3; Homo sapiens)?
**A.** 0.72 µM

**Q.** And the TGI (PC-3; total growth inhibition)?
**A.** 1.52 µM

**Q.** What about the IC50 (MDA-MB-435; Homo sapiens) of the same compound?
**A.** 0.62 µM

**Q.** And the TGI (MDA-MB-435; total growth inhibition)?
**A.** 1.26

**Q.** And the IC50 (RXF 393; Homo sapiens)?
**A.** 0.51 µM

**Q.** And the TGI (RXF 393; total growth inhibition)?
**A.** 1.11 µM

**Q.** And the IC50 (SR; Homo sapiens)?
**A.** 1 µM

**Q.** And the TGI (SR; total growth inhibition)?
**A.** 3.19 µM

**Q.** And the TGI (SW-620; total growth inhibition)?
**A.** 1.3 µM

**Q.** And the IC50 (SW-620; Homo sapiens)?
**A.** 0.68 µM

**Q.** What about the IC50 (DU-145; Homo sapiens) of the same compound?
**A.** 0.72 µM

**Q.** What about the TGI (DU-145; total growth inhibition) of the same compound?
**A.** 1.35 µM

**Q.** What about the IC50 (M14; Homo sapiens) of the same compound?
**A.** 0.67 µM

**Q.** What about the TGI (M14; total growth inhibition) of the same compound?
**A.** 1.41 µM

**Q.** What about the IC50 (K-562; Homo sapiens, K562, Leukemia) of the same compound?
**A.** 0.92 µM

**Q.** And the TGI (K-562; Leukemia, total growth inhibition)?
**A.** >38.8

**Q.** And the TGI (SF-539; total growth inhibition)?
**A.** 0.99 µM

**Q.** And the IC50 (SF-539; Homo sapiens)?
**A.** 0.5 µM

**Q.** And the TGI (MDA-MB-231/ATCC; total growth inhibition)?
**A.** 1.26 µM

**Q.** What about the IC50 (MDA-MB-231/ATCC; Homo sapiens) of the same compound?
**A.** 0.67 µM

**Q.** And the IC50 (SK-OV-3; Homo sapiens)?
**A.** 2.93 µM

**Q.** What about the TGI (SK-OV-3; total growth inhibition) of the same compound?
**A.** 8.23 µM

**Q.** And the IC50 (NCI-H23; Homo sapiens)?
**A.** 0.73 µM

**Q.** What about the TGI (NCI-H23; total growth inhibition) of the same compound?
**A.** 1.46 µM

**Q.** What about the IC50 (NCI/ADR-RES; Homo sapiens) of the same compound?
**A.** 1.17 µM

**Q.** What about the TGI (NCI/ADR-RES; total growth inhibition) of the same compound?
**A.** 3.71

**Q.** And the IC50 (LOX IMVI; Homo sapiens)?
**A.** 0.62 µM

**Q.** What about the TGI (LOX IMVI; total growth inhibition) of the same compound?
**A.** 1.15 µM

**Q.** What about the IC50 (A549/ATCC; Homo sapiens) of the same compound?
**A.** 0.73 µM

**Q.** What about the TGI (A549/ATCC; total growth inhibition) of the same compound?
**A.** 1.64 µM

**Q.** And the “inhibition activity against hepatocellular carcinoma cell lines compared with sorafenib” value [1]?
**A.** higher inhibition activity than sorafenib

**Q.** And the TGI (MCF7; total growth inhibition)?
**A.** 1.3 µM

**Q.** And the IC50 (MCF7; Homo sapiens)?
**A.** 0.65 µM

**Q.** What about the IC50 (A498; Homo sapiens) of the same compound?
**A.** 4.71 µM

**Q.** What about the TGI (A498; total growth inhibition) of the same compound?
**A.** 9.61 µM

**Q.** What about the IC50 (ACHN; Homo sapiens) of the same compound?
**A.** 0.64 µM

**Q.** What about the TGI (ACHN; total growth inhibition) of the same compound?
**A.** 1.18 µM

**Q.** What about the IC50 (OVCAR-5; Homo sapiens) of the same compound?
**A.** 0.65 µM

**Q.** What about the TGI (OVCAR-5; total growth inhibition) of the same compound?
**A.** 1.23 µM

**Q.** What about the IC50 (786-0; Homo sapiens) of the same compound?
**A.** 0.53 µM

**Q.** And the TGI (786-0; total growth inhibition)?
**A.** 1.1 µM

**Q.** What about the TGI (HCC-2998; total growth inhibition) of the same compound?
**A.** 1.36 µM

**Q.** And the IC50 (HCC-2998; Homo sapiens)?
**A.** 0.7 µM

**Q.** And the IC50 (SK-MEL-28; Homo sapiens)?
**A.** 0.64 µM

**Q.** What about the TGI (SK-MEL-28; total growth inhibition) of the same compound?
**A.** 1.17 µM
